Consider 11 cell lines from the supplement of paper PMC10307832.

What all share (assay): relative viability (nuclei count vs DMSO), 5 days (fraction); higher = more cells survive
Compound in experiment [1]: CC(C)CCN1c2nc(Nc3cc(F)c(O)c(F)c3)ncc2N(C)C(=O)C1C [BI-D1870] + CC(=O)Nc1cccc(-n2c(=O)n(C3CC3)c(=O)c3c(Nc4ccc(I)cc4F)n(C)c(=O)c(C)c32)c1 [Trametinib] (partner 0.02 µM)
A digest of the protocol: (§1)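 Relative viability divides the nuclei count in treated wells by that in vehicle wells. Lung cancer cell lines were seeded in 1536-well plates, dosed by pin tool the next day, and fixed and stained after 5 days in one step with final 0.05% Triton X-100, 1% formaldehyde and 1 ug/ml Hoechst. Dosing was a single drug or a fixed anchor-drug dose plus five library-drug doses (not always all listed) in √10 steps, and values are medians of duplicate plates imaged at 4×.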

Compound in experiment [2]: CC(C)CCN1c2nc(Nc3cc(F)c(O)c(F)c3)ncc2N(C)C(=O)C1C [BI-D1870] + C[C@]1(O)C[C@@H](c2nc(-c3ccc4ccc(-c5ccccc5)nc4c3)c3c(N)nccn32)C1 [Linsitinib] (partner 1 µM)
The essentials: as §1

Compound in experiment [3]: CC(C)CCN1c2nc(Nc3cc(F)c(O)c(F)c3)ncc2N(C)C(=O)C1C [BI-D1870] + CC1(C)CCC(c2ccc(Cl)cc2)=C(CN2CCN(c3ccc(C(=O)NS(=O)(=O)c4ccc(N[C@H](CCN5CCOCC5)CSc5ccccc5)c(S(=O)(=O)C(F)(F)F)c4)cc3)CC2)C1 [Navitoclax] (partner 0.5 µM)
A digest of the protocol:
as §1

Compound in experiment [4]: CC(C)CCN1c2nc(Nc3cc(F)c(O)c(F)c3)ncc2N(C)C(=O)C1C [BI-D1870] + CC(=O)c1c(C)c2cnc(Nc3ccc(N4CCNCC4)cn3)nc2n(C2CCCC2)c1=O [Palbociclib] (partner 0.5 µM)
The essentials: as §1

For the cell line NCI-H596, the relative viability was 0.95 in experiment [1] (first compound 0.04 µM); 0.773 in experiment [1] (first compound 0.1265 µM); 0.846 in experiment [1] (first compound 0.4 µM); 0.804 in experiment [1] (first compound 1.265 µM); 0.762 in experiment [1] (first compound 4 µM); 1.13 in experiment [2] (first compound 0.04 µM). The relative viability in experiment [2] (first compound 0.1265 µM) was found to be 1.07; in experiment [2] (first compound 0.4 µM), 1.05; in experiment [2] (first compound 1.265 µM), 1.17; in experiment [2] (first compound 4 µM) it was 1.07; in experiment [3] (first compound 0.04 µM) it was 1.21; in experiment [3] (first compound 0.1265 µM), 0.922. Further, the relative viability is 0.947 in experiment [3] (first compound 0.4 µM), 1.2 in experiment [3] (first compound 1.265 µM) and 0.987 in experiment [3] (first compound 4 µM).

For the cell line NCI-H650, the relative viability in experiment [1] (first compound 0.04 µM) was 0.995; in experiment [1] (first compound 0.1265 µM), 0.82; in experiment [1] (first compound 0.4 µM), 0.862; in experiment [1] (first compound 1.265 µM), 0.901; in experiment [1] (first compound 4 µM), 0.904; in experiment [2] (first compound 0.04 µM), 1.12. For the same cell line, the relative viability was found to be 0.733 in experiment [2] (first compound 0.1265 µM); 0.905 in experiment [2] (first compound 0.4 µM); 0.704 in experiment [2] (first compound 1.265 µM); 0.855 in experiment [2] (first compound 4 µM); 0.384 in experiment [4] (first compound 0.04 µM); 0.304 in experiment [4] (first compound 0.1265 µM). For the same cell line, the figures for the relative viability in experiment [4] (first compound 0.4 µM), in experiment [4] (first compound 1.265 µM) and in experiment [4] (first compound 4 µM) were 0.338, 0.353 and 0.233, respectively.

With NCI-H661, the relative viability in experiment [1] (first compound 0.04 µM) stood at 0.607; in experiment [1] (first compound 0.1265 µM) it was 0.499; in experiment [1] (first compound 0.4 µM), 0.598; in experiment [1] (first compound 1.265 µM) it was 0.589; in experiment [1] (first compound 4 µM), 0.472; in experiment [2] (first compound 0.04 µM), 0.515. Further, the relative viability in experiment [2] (first compound 0.1265 µM) was 0.485; in experiment [2] (first compound 0.4 µM) it was 0.489; in experiment [2] (first compound 1.265 µM), 0.535; in experiment [2] (first compound 4 µM), 0.593; in experiment [4] (first compound 0.04 µM), 0.459; in experiment [4] (first compound 0.1265 µM) it was 0.392. The relative viability in experiment [4] (first compound 0.4 µM) amounted to 0.419; in experiment [4] (first compound 1.265 µM) it was 0.384; in experiment [4] (first compound 4 µM), 0.358.

As to NCI-H1299, the relative viability in experiment [2] (first compound 0.04 µM) stood at 1.04; in experiment [2] (first compound 0.1265 µM) it was 0.909; in experiment [2] (first compound 0.4 µM), 0.995; in experiment [2] (first compound 1.265 µM), 1.02; in experiment [2] (first compound 4 µM), 0.933; in experiment [3] (first compound 0.04 µM), 1.04. Also, the relative viability was 1 in experiment [3] (first compound 0.1265 µM), 1.09 in experiment [3] (first compound 0.4 µM), 1.01 in experiment [3] (first compound 1.265 µM) and 0.843 in experiment [3] (first compound 4 µM).

On to NCI-H1563, for which the relative viability in experiment [2] (first compound 0.04 µM) is 1.4; in experiment [2] (first compound 0.1265 µM), 1.1; in experiment [2] (first compound 0.4 µM) it was 1.13; in experiment [2] (first compound 1.265 µM) it was 1.07; in experiment [2] (first compound 4 µM), 1.19.

Turning to NCI-H1648, the relative viability in experiment [1] (first compound 0.04 µM) is 0.445; in experiment [1] (first compound 0.1265 µM) it was 0.54; in experiment [1] (first compound 1.265 µM), 0.552; in experiment [1] (first compound 4 µM), 0.49; in experiment [4] (first compound 0.04 µM) it was 0.285; in experiment [4] (first compound 0.1265 µM), 0.273. The relative viability in experiment [4] (first compound 1.265 µM) was determined as 0.308; in experiment [4] (first compound 4 µM), 0.259.

For the cell line NCI-H1650, the relative viability turned out to be 0.705 in experiment [1] (first compound 0.04 µM); 0.551 in experiment [1] (first compound 0.1265 µM); 0.573 in experiment [1] (first compound 0.4 µM); 0.64 in experiment [1] (first compound 1.265 µM); 0.552 in experiment [1] (first compound 4 µM); 1.26 in experiment [3] (first compound 0.04 µM). For the same cell line, the relative viability is 1.05 in experiment [3] (first compound 0.1265 µM); 1.23 in experiment [3] (first compound 0.4 µM); 1.34 in experiment [3] (first compound 1.265 µM); 1.15 in experiment [3] (first compound 4 µM); 0.372 in experiment [4] (first compound 0.04 µM); 0.316 in experiment [4] (first compound 0.1265 µM). In addition, the relative viability is 0.338 in experiment [4] (first compound 0.4 µM), 0.321 in experiment [4] (first compound 1.265 µM) and 0.335 in experiment [4] (first compound 4 µM).

In the case of NCI-H1703, the relative viability in experiment [2] (first compound 0.1265 µM) turned out to be 0.405; in experiment [2] (first compound 0.4 µM), 0.635; in experiment [2] (first compound 1.265 µM) it was 0.772; in experiment [2] (first compound 4 µM), 0.728; in experiment [3] (first compound 0.04 µM), 1.1; in experiment [3] (first compound 0.1265 µM), 0.846. Also, the relative viability in experiment [3] (first compound 0.4 µM) was 1.02; in experiment [3] (first compound 1.265 µM) it was 1.28; in experiment [3] (first compound 4 µM), 0.745.

For the cell line NCI-H2170, the relative viability was 1 in experiment [1] (first compound 0.04 µM); 0.829 in experiment [1] (first compound 0.1265 µM); 0.887 in experiment [1] (first compound 0.4 µM); 0.939 in experiment [1] (first compound 1.265 µM); 0.874 in experiment [1] (first compound 4 µM); 0.608 in experiment [3] (first compound 0.04 µM). Further, the relative viability stood at 0.524 in experiment [3] (first compound 0.1265 µM); 0.578 in experiment [3] (first compound 0.4 µM); 0.514 in experiment [3] (first compound 1.265 µM); 0.496 in experiment [3] (first compound 4 µM); 0.455 in experiment [4] (first compound 0.04 µM); 0.38 in experiment [4] (first compound 0.1265 µM). The relative viability in experiment [4] (first compound 0.4 µM) is 0.423; in experiment [4] (first compound 1.265 µM), 0.447; in experiment [4] (first compound 4 µM), 0.398.

Turning to NCI-H2342, the relative viability was determined as 0.794 in experiment [1] (first compound 0.04 µM); 0.805 in experiment [1] (first compound 0.1265 µM); 0.881 in experiment [1] (first compound 0.4 µM); 1 in experiment [1] (first compound 1.265 µM); 1.01 in experiment [1] (first compound 4 µM); 0.508 in experiment [4] (first compound 0.04 µM). Moreover, the relative viability in experiment [4] (first compound 0.1265 µM) is 0.511; in experiment [4] (first compound 0.4 µM), 0.528; in experiment [4] (first compound 1.265 µM), 0.528; in experiment [4] (first compound 4 µM), 0.559.

SW 900: the relative viability stood at 0.883 in experiment [1] (first compound 0.04 µM); 0.83 in experiment [1] (first compound 0.1265 µM); 0.858 in experiment [1] (first compound 0.4 µM); 0.762 in experiment [1] (first compound 1.265 µM); 0.984 in experiment [1] (first compound 4 µM); 0.697 in experiment [4] (first compound 0.04 µM). The relative viability in experiment [4] (first compound 0.1265 µM) came out at 0.478; in experiment [4] (first compound 0.4 µM), 0.511; in experiment [4] (first compound 1.265 µM) it was 0.536; in experiment [4] (first compound 4 µM), 0.517.
